Data published in patent US20170190671A1, “BIS(ARYL)CATECHOL DERIVATIVES AS HERBICIDES” (E I DU PONT DE NEMOURS AND COMPANY, priority 2014, published 2017).

What was measured:
Assay in all cases: Test C postemergence
Assay type in all cases: in vivo
[1] = system: Italian ryegrass (Lolium multiflorum); conditions: Lolium multiflorum, post-emergence, 336 h, Postemergence, scale 0 to 100, read-out: Plant response rating, Ryegrass, Italian
Outline: (§1)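 After preemergence treatment of seeds in loam-sand soil or foliar treatment at the 1- to 4-leaf stage of plants in peat/vermiculite medium, pots were kept 13-15 days in the greenhouse. Each was then scored visually, 0 meaning no effect and 100 complete control.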

[2] = system: barnyardgrass (Echinochloa crus-galli); conditions: Echinochloa crus-galli, post-emergence, Postemergence, scale 0 to 100, read-out: Plant response rating, Barnyardgrass
Outline: as §1

[3] = system: blackgrass (Alopecurus myosuroides); conditions: Alopecurus myosuroides, post-emergence, 336 h, Postemergence, scale 0 to 100, read-out: Plant response rating, Blackgrass
Outline: as §1

[4] = system: chickweed (common chickweed, Stellaria media); conditions: Stellaria media, post-emergence, Postemergence, scale 0 to 100, read-out: Plant response rating, Chickweed
Outline: as §1

[5] = system: giant foxtail (Setaria faberii); conditions: Setaria faberi, post-emergence, 336 h, Postemergence, scale 0 to 100, read-out: Plant response rating, Foxtail, Giant
Outline: as §1

[6] = system: johnsongrass (Sorghum halepense); conditions: Sorghum halepense, post-emergence, 336 h, Postemergence, scale 0 to 100, read-out: Plant response rating, Johnsongrass
Outline: as §1

kochia (Kochia scoparia) = conditions: Bassia scoparia, post-emergence, Postemergence, scale 0 to 100, read-out: Plant response rating, Kochia
Outline: as §1

[7] = system: large (Lg) crabgrass (Digitaria sanguinalis); conditions: Digitaria sanguinalis, post-emergence, 336 h, Postemergence, scale 0 to 100, read-out: Plant response rating, Crabgrass, Large
Outline: as §1

[8] = system: morningglory (Ipomoea coccinea); conditions: Ipomoea, post-emergence, 336 h, Postemergence, scale 0 to 100, read-out: Plant response rating, Morningglory
Outline: as §1

[9] = system: oilseed rape (Brassica napus); conditions: Brassica napus, post-emergence, Postemergence, scale 0 to 100, read-out: Plant response rating, Oilseed Rape
Outline: as §1

[10] = system: pigweed (Amaranthus retroflexus); conditions: Amaranthus retroflexus, post-emergence, 336 h, Postemergence, scale 0 to 100, read-out: Plant response rating, Pigweed
Outline: as §1

[11] = system: velvetleaf (Abutilon theophrasti); conditions: Abutilon theophrasti, post-emergence, Postemergence, scale 0 to 100, read-out: Plant response rating, Velvetleaf
Outline: as §1

wild oat (Avena fatua) = conditions: Avena fatua, post-emergence, Postemergence, scale 0 to 100, read-out: Plant response rating, Oat, Wild
Outline: as §1

[12] = system: winter wheat (Triticum aestivum); conditions: Triticum aestivum, post-emergence, 336 h, Postemergence, scale 0 to 100, read-out: Plant response rating, Wheat
Outline: as §1

[13] = system: yellow nutsedge (Cyperus esculentus); conditions: Cyperus, post-emergence, 336 h, Postemergence, scale 0 to 100, read-out: Plant response rating, Nutsedge, Yellow
Outline: as §1

**Q.** `Fc1cccc(Oc2ncc(C(F)(F)F)cn2)c1Oc1ncc(Cl)cn1` [Compound 42, 5-chloro-2-[2-fluoro-6-[[5-(trifluoromethyl)-2-pyrimidinyl]oxy]phenoxy]pyrimidine] was tested. Which pest or weed control at 31 g/ha ([1]; 31 g ai/ha) did it give?
**A.** 0%

**Q.** What about the pest or weed control at 62 g/ha ([1]; 62 g ai/ha) of the same molecule?
**A.** 10%

**Q.** And the pest or weed control at 125 g/ha ([1]; 125 g ai/ha)?
**A.** 35%

**Q.** What about the pest or weed control at 16 g/ha ([2]; 16 g ai/ha) of the same molecule?
**A.** 5%

**Q.** What about the pest or weed control at 31 g/ha ([2]; 31 g ai/ha) of the same molecule?
**A.** 5%

**Q.** And the pest or weed control at 62 g/ha ([2]; 62 g ai/ha)?
**A.** 10%

**Q.** And the pest or weed control at 125 g/ha ([2]; 125 g ai/ha)?
**A.** 20%

**Q.** What about the pest or weed control at 16 g/ha ([3]; 16 g ai/ha) of the same molecule?
**A.** 10%

**Q.** And the pest or weed control at 31 g/ha ([3]; 31 g ai/ha)?
**A.** 20%

**Q.** What about the pest or weed control at 62 g/ha ([3]; 62 g ai/ha) of the same molecule?
**A.** 20%

**Q.** And the pest or weed control at 125 g/ha ([3]; 125 g ai/ha)?
**A.** 80%

**Q.** And the pest or weed control at 16 g/ha ([4]; 16 g ai/ha)?
**A.** 20%

**Q.** What about the pest or weed control at 31 g/ha ([4]; 31 g ai/ha) of the same molecule?
**A.** 90%

**Q.** And the pest or weed control at 62 g/ha ([4]; 62 g ai/ha)?
**A.** 95%

**Q.** What about the pest or weed control at 125 g/ha ([4]; 125 g ai/ha) of the same molecule?
**A.** 95%

**Q.** And the pest or weed control at 16 g/ha ([5]; 16 g ai/ha)?
**A.** 30%

**Q.** What about the pest or weed control at 31 g/ha ([5]; 31 g ai/ha) of the same molecule?
**A.** 30%

**Q.** What about the pest or weed control at 62 g/ha ([5]; 62 g ai/ha) of the same molecule?
**A.** 35%

**Q.** And the pest or weed control at 125 g/ha ([5]; 125 g ai/ha)?
**A.** 35%

**Q.** What about the pest or weed control at 16 g/ha ([6]; 16 g ai/ha) of the same molecule?
**A.** 10%

**Q.** And the pest or weed control at 31 g/ha ([6]; 31 g ai/ha)?
**A.** 10%

**Q.** What about the pest or weed control at 62 g/ha ([6]; 62 g ai/ha) of the same molecule?
**A.** 10%

**Q.** What about the pest or weed control at 125 g/ha ([6]; 125 g ai/ha) of the same molecule?
**A.** 40%

**Q.** What about the pest or weed control at 16 g/ha (kochia (Kochia scoparia); 16 g ai/ha) of the same molecule?
**A.** 90%

**Q.** What about the pest or weed control at 31 g/ha (kochia (Kochia scoparia); 31 g ai/ha) of the same molecule?
**A.** 95%

**Q.** What about the pest or weed control at 62 g/ha (kochia (Kochia scoparia); 62 g ai/ha) of the same molecule?
**A.** 100%

**Q.** And the pest or weed control at 125 g/ha (kochia (Kochia scoparia); 125 g ai/ha)?
**A.** 100%

**Q.** And the pest or weed control at 16 g/ha ([7]; 16 g ai/ha)?
**A.** 10%

**Q.** And the pest or weed control at 31 g/ha ([7]; 31 g ai/ha)?
**A.** 20%

**Q.** And the pest or weed control at 62 g/ha ([7]; 62 g ai/ha)?
**A.** 15%

**Q.** What about the pest or weed control at 125 g/ha ([7]; 125 g ai/ha) of the same molecule?
**A.** 40%

**Q.** And the pest or weed control at 31 g/ha ([8]; 31 g ai/ha)?
**A.** 70%

**Q.** And the pest or weed control at 62 g/ha ([8]; 62 g ai/ha)?
**A.** 75%

**Q.** And the pest or weed control at 125 g/ha ([8]; 125 g ai/ha)?
**A.** 85%

**Q.** And the plant injury at 31 g/ha ([9]; 31 g ai/ha)?
**A.** 50%

**Q.** And the plant injury at 62 g/ha ([9]; 62 g ai/ha)?
**A.** 70%

**Q.** What about the plant injury at 125 g/ha ([9]; 125 g ai/ha) of the same molecule?
**A.** 85%

**Q.** And the pest or weed control at 31 g/ha ([10]; 31 g ai/ha)?
**A.** 90%

**Q.** What about the pest or weed control at 62 g/ha ([10]; 62 g ai/ha) of the same molecule?
**A.** 98%

**Q.** And the pest or weed control at 125 g/ha ([10]; 125 g ai/ha)?
**A.** 98%

**Q.** What about the pest or weed control at 31 g/ha ([11]; 31 g ai/ha) of the same molecule?
**A.** 60%

**Q.** And the pest or weed control at 62 g/ha ([11]; 62 g ai/ha)?
**A.** 70%

**Q.** And the pest or weed control at 125 g/ha ([11]; 125 g ai/ha)?
**A.** 85%

**Q.** And the pest or weed control at 31 g/ha (wild oat (Avena fatua); 31 g ai/ha)?
**A.** 10%

**Q.** And the pest or weed control at 62 g/ha (wild oat (Avena fatua); 62 g ai/ha)?
**A.** 40%

**Q.** And the pest or weed control at 125 g/ha (wild oat (Avena fatua); 125 g ai/ha)?
**A.** 60%

**Q.** What about the plant injury at 31 g/ha ([12]; 31 g ai/ha) of the same molecule?
**A.** 0%

**Q.** What about the plant injury at 62 g/ha ([12]; 62 g ai/ha) of the same molecule?
**A.** 0%

**Q.** What about the plant injury at 125 g/ha ([12]; 125 g ai/ha) of the same molecule?
**A.** 10%

**Q.** And the pest or weed control at 31 g/ha ([13]; 31 g ai/ha)?
**A.** 0%

**Q.** And the pest or weed control at 62 g/ha ([13]; 62 g ai/ha)?
**A.** 5%

**Q.** What about the pest or weed control at 125 g/ha ([13]; 125 g ai/ha) of the same molecule?
**A.** 5%
